In paper PMC5513091, “A novel Alzheimer’s disease drug candidate targeting inflammation and fatty acid metabolism” (Alzheimer's Research & Therapy, 2017):

Assays:
[1] = tested on: APPswe/PS1∆E9 mice; test: Fear-conditioning assay; format: in vivo; conditions: AD mice fed 200 ppm in chow for 3 months from 10 months of age; day 2
Method: (§1) The APPswe/PS1∆E9-transgenic mice were characterized previously. Line 85 mice carry two transgenes, the mouse/human chimeric APPswe, linked to Swedish familial AD and human PS1∆E9. At 10 months of age, female transgenic mice were fed a defined diet (Harlan Teklad; Envigo, Indianapolis, IN, USA) with and without CAD-31 (200 ppm, approximately 10 mg/kg/day). Treatment continued for 3 months, followed by behavior testing and tissue harvesting.
Fear conditioning to either a cue or a context represents a form of associative learning. The readout that is measured in contextual and cued fear conditioning is a freezing response that occurs following the pairing of an unconditioned stimulus, such as a foot shock, with a conditioned stimulus, such as a particular context or cue (tone). The mouse will freeze if it remembers and associates that environment with the aversive stimulus. The hippocampus and the amygdala are required for fear memory, where the hippocampus is involved in the formation and retrieval of context fear associations and the amygdala is involved in conditioning and recall of associations to contextual and discrete cues. […] On day 2, the time spent freezing is measured over the entire time in the chamber. […] The percentage of time spent freezing by each mouse is averaged per group, and then groups can be compared and p values calculated to determine statistical significance.

[2] = tested on: ubiquitinated proteins; test: Immunoblotting of hippocampal tissue; format: in vivo, mice; conditions: hippocampus
Method: (§2) Hippocampal tissue samples were homogenized in 10 volumes of radioimmunoprecipitation assay (RIPA) lysis buffer (50 mM Tris, pH 7.5, 150 mM NaCl, 0.1% SDS, 0.5% deoxycholate, and 1% Nonidet P-40) containing a cocktail of protease and phosphatase inhibitors [[…] each of pepstatin A, aprotinin, phosphoramidon, and leupeptin; 0.5 mM 4-(2-aminoethyl)benzenesulfonyl fluoride hydrochloride; 1 mM ethylene glycol-bis(β-aminoethyl ether)-N,N,N′,N′-tetraacetic acid; 5 mM fenvalerate; and 5 mM cantharidin]. Samples were sonicated (2 × 10 seconds) and centrifuged first at 10,000 × g for 10 minutes and then at 100,000 × g for 60 minutes at 4 °C. The 100,000 × g pellet was taken up either in 6 M guanidine for Aβ analysis or in SDS sample buffer for Western blot analysis. Protein concentrations in the cell extracts were determined using a bicinchoninic acid protein assay (Pierce Biotechnology, Rockford, IL, USA). Equal amounts of protein were solubilized in 2.5× SDS sample buffer, separated on 12% SDS-polyacrylamide gels, transferred to Immobilon-P (EMD Millipore, Billerica, MA, USA), and immunoblotted with the antibodies indicated in the Materials subsection above. For Western blot experiments, protein levels were normalized to actin levels. An unpaired t test was performed to compare two groups at a single time point. When comparing multiple groups, one-way analysis of variance (ANOVA) followed by Tukey’s post hoc test was used. All statistical analysis was conducted using GraphPad InStat software.

[3] = tested on: autophagy markers LC3 and P62; test: Immunoblotting of hippocampal tissue; format: in vivo, mice; conditions: data not shown
Method: as §2

[4] = tested on: ACC-1; test: Immunoblotting of hippocampal tissue; format: in vivo, mice; conditions: hippocampus
Method: as §2

[5] = tested on: DCX; test: Immunoblotting of hippocampal tissue; format: in vivo, mice; conditions: hippocampus
Method: as §2

[6] = Free feeding CAD-31 plasma and brain levels in mice; format: in vivo
Method: Sprague-Dawley rats had free access to food and water. CAD-31 was given by gavage to rats at 20 mg/kg in corn oil and intravenously in 15% HS 15/PBS. Whole-blood samples were collected from the jugular vein at every time point and brain collected after 20-ml saline perfusion. CAD-31 was extracted with acetonitrile and compared with standards on a TSQ Quantiva™ Triple Quadrupole Mass Spectrometer (Thermo Scientific, Waltham, MA, USA). For the mouse feeding studies, mice had free access to food containing 200 ppm CAD-31. Blood was collected by heart puncture, and the brain concentration was determined as with rats.

[7] = tested on: APPswe/PS1∆E9 mice; test: Elevated plus maze; format: in vivo; conditions: AD mice fed 200 ppm in chow for 3 months from 10 months of age
Method: as §1
The elevated plus maze is used to analyze the anxiety response of mice. This test relies upon the tendency of mice to have a fear of heights and to navigate toward dark, enclosed spaces and remain there. Our maze is made of gray plastic and consists of four arms (two open without walls and two enclosed by 15.25-cm-high walls) that are 30 cm long and 5 cm wide in the shape of a plus sign. A video tracking system (EthoVision; Noldus Information Technology) is used to automatically collect behavioral data. Mice are habituated to the room 24 h before testing. Mice are also habituated to the maze for 2 minutes before testing by placing them in the center of the maze and blocking entry to the arms. Mice were tested in the maze for a 5-minute period. The anxiety of mice was measured by comparing the time spent in the open arms with time spent in the closed arms. Statistics were computed using GraphPad InStat software.

[8] = mice fed ad libitum, 200 ppm in chow (about 10 mg/kg/day)

Cc1ccc(N(/N=C/c2cccc(OC(F)(F)F)c2)C(=O)C(F)(F)F)c(C)c1 [CAD-31]
time freezing in response to the context [1]: more time freezing in response to the context
RIPA-insoluble ubiquitinated proteins ([2]; 13-month-old WT and AD mice): reduced
ubiquitinated proteins in the soluble fraction ([2]; data not shown): unchanged
expression of the autophagy markers LC3 and P62 [3]: did not, however, alter the expression
phosphorylation of ACC-1 ([4]; AD mice): greatly increases the depressed level of phosphorylation in AD mice
total amount of ACC-1 protein ([4]; AD mice): not significantly reduced
phosphorylation of ACC-1 ([4]; WT mice): decreases the phosphorylation of ACC-1 in WT mice
expression of the NPC marker DCX [5]: increased the expression of the NPC marker DCX in the hippocampus
maximum brain concentration, free-fed [6, 8]: 53 nM
maximum plasma concentration, free-fed [6, 8]: 82 nM
Free-Fed ~10 mg/kg/day Brain ([6]; mice, 200 ppm in food): 0.053 µM
Free-Fed ~10 mg/kg/day Plasma ([6]; mice, 200 ppm in food): 0.082 µM
time spent on the open arm (disinhibition phenotype) [7]: completely rescued to age-matched WT levels
